Columns and labels:
Test in all cases: Enzyme binding assay (KINOMEscan)
Details in all cases: DiscoveRx, pKd = -log Kd (M)
FGFR2 = FGFR2 (Homo sapiens (Human), UniProt P21802)
Experimental: (§1) Enzyme Binding Assays (KINOMEscan®)
(§2) Kinase enzyme binding affinities of compounds disclosed herein were determined using the KINOMEscan® technology performed by DiscoveRx Corporation, San Diego, Calif., USA (www.kinomescan.com). Table A2 reports the obtained pKd values, with Kd (M) being the inhibitor binding constant value and with pKd being −log Kd: […]

FGFR4 = FGFR4 (Homo sapiens (Human), UniProt P22455)
Experimental: as §1, §2

VEGFR2 = VEGFR2 (Homo sapiens (Human), UniProt P35968)
Experimental: as §1, §2

FGFR1 = FGFR1 (Homo sapiens (Human), UniProt P11362)
Experimental: as §1, §2

FGFR3 = FGFR3 (Homo sapiens (Human), UniProt P22607)
Experimental: as §1, §2

FGFR3, sequence (P22607 23-806): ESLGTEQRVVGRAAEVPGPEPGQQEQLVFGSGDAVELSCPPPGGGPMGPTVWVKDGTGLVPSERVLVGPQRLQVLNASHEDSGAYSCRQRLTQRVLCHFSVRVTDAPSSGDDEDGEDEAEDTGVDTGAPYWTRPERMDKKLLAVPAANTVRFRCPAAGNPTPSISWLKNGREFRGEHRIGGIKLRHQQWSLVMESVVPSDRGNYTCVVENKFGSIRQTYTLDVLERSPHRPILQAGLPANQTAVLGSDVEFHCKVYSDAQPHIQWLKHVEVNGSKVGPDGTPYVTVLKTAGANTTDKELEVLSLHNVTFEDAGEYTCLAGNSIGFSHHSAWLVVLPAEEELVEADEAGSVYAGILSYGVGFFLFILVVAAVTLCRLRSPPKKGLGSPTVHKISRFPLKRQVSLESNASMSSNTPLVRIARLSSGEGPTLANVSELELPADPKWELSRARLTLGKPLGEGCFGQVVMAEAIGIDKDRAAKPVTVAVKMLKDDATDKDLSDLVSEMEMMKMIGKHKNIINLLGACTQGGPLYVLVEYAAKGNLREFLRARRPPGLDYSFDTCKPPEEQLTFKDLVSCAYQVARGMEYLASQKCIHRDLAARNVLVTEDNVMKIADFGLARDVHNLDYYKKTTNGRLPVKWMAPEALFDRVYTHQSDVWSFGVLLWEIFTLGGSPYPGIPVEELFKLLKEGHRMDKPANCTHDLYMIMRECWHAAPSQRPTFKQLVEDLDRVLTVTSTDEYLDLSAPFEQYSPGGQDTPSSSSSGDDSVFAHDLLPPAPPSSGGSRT
FGFR2, sequence (P21802 22-821): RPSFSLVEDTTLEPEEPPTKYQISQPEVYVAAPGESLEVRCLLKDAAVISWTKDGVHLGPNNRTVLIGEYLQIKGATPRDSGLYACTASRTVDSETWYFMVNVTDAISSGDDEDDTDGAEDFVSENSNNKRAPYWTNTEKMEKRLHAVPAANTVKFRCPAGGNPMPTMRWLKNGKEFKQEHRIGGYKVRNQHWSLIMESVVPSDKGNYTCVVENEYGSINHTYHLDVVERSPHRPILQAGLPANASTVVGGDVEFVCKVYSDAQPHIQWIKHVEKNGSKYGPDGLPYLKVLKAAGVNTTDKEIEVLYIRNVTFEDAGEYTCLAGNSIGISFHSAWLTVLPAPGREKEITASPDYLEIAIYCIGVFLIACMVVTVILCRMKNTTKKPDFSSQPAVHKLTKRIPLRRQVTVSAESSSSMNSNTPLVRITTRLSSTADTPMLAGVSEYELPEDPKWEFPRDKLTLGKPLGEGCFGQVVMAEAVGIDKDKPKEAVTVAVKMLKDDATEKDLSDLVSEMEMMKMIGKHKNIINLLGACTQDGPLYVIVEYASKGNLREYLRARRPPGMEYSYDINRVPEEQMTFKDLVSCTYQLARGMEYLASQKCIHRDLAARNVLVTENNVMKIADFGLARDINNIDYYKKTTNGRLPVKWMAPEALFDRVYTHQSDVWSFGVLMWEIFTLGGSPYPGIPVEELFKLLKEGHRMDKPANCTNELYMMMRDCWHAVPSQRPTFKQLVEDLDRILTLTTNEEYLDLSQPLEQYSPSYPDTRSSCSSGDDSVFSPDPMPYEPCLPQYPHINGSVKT
VEGFR2, sequence (P35968 20-1356): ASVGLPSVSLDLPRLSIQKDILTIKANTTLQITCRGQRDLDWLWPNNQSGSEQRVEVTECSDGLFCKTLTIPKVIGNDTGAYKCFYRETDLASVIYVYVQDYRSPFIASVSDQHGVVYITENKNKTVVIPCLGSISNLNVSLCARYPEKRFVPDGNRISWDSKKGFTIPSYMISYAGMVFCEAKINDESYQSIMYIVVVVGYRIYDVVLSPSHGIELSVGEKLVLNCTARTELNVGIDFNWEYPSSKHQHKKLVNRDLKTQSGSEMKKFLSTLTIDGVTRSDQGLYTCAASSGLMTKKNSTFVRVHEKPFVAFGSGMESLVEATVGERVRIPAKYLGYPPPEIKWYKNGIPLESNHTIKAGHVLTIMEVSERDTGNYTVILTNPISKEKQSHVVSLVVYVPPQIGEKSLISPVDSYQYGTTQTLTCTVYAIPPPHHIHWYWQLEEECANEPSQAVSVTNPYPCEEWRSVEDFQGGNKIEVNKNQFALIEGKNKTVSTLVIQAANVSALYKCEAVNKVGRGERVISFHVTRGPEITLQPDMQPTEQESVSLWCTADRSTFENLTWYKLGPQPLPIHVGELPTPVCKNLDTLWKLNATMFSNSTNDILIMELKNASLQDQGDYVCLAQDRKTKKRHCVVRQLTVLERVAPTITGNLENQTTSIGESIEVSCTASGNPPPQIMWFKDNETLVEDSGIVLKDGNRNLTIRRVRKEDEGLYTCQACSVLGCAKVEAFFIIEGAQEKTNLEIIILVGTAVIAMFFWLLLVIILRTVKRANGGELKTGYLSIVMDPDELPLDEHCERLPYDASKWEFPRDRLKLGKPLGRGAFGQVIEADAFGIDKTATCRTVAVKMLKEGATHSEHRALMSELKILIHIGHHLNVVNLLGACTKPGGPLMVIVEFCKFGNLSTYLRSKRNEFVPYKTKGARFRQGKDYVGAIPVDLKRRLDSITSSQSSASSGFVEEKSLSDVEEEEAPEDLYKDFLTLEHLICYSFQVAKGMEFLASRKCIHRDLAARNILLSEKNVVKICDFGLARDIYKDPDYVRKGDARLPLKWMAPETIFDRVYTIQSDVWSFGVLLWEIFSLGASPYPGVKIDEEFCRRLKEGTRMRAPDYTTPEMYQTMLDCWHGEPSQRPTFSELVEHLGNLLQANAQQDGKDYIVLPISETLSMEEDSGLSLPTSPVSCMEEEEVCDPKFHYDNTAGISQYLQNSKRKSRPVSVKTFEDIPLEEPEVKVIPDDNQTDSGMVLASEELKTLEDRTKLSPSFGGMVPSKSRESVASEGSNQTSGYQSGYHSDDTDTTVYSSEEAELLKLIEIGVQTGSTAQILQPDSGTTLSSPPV
FGFR4, sequence (P22455 22-802): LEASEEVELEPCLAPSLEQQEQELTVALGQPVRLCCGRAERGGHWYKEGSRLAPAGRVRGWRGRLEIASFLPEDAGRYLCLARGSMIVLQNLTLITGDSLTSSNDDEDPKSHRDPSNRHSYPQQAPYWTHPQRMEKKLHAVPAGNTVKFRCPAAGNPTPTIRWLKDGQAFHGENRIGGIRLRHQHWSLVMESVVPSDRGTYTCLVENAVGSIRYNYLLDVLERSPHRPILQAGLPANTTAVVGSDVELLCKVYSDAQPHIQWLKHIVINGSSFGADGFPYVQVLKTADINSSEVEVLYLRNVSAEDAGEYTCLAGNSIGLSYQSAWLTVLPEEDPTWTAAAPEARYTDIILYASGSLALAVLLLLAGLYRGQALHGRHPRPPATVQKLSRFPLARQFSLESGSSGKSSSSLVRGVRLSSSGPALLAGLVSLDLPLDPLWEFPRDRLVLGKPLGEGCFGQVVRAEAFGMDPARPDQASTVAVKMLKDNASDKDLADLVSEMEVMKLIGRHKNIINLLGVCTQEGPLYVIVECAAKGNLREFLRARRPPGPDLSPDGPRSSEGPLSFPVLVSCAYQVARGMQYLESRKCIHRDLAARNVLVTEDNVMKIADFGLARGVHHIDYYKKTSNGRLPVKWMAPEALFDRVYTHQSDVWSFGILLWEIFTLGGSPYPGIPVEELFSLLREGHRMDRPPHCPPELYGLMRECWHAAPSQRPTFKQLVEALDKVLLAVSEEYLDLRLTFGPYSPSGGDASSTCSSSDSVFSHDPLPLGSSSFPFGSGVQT
FGFR1, sequence (P11362 22-822): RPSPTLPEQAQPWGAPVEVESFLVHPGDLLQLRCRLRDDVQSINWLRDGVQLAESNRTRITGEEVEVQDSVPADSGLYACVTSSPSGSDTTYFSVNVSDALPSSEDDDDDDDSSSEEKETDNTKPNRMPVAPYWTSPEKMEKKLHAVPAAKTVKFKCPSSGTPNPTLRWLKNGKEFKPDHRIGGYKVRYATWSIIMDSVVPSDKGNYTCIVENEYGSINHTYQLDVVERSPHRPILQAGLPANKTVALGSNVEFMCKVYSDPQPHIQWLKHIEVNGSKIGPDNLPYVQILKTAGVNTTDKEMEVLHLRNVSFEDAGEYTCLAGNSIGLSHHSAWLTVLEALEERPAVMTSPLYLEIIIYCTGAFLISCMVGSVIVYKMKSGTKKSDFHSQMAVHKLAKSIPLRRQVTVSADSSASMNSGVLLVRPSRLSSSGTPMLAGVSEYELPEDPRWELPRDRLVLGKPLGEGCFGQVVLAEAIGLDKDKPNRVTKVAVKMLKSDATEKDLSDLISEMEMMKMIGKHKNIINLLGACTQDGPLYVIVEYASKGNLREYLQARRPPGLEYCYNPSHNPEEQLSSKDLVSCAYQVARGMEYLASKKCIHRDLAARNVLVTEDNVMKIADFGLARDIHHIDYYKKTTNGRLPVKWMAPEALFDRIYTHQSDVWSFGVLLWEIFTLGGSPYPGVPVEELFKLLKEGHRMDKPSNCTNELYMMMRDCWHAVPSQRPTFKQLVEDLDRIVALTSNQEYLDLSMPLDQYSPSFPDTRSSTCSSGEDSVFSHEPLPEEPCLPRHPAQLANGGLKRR

Kd (FGFR2) [M]	Kd (FGFR4) [M]	Kd (VEGFR2) [M]	Kd (FGFR1) [M]	Kd (FGFR3) [M]	SMILES
1.86e-06	2.45e-06	> 3.02e-06			COc1cc(OC)c2c(c1)N(c1ccc3ncc(-c4cnn(C)c4)cc3c1)CCN(C(C)C)C2 [Compound 1]
> 3.02e-06	> 3.02e-06	> 3.02e-06	> 3.02e-06	> 3.02e-06	COc1cc(OC)c2c(c1)N(c1ccc3ncn(-c4cnn(C)c4)c(=O)c3c1)CCN(C(C)C)C2 [Compound 11]
> 3.02e-06	> 3.02e-06	> 3.02e-06			COc1cc(O)c2c(c1)N(c1ccc3ncc(-c4cnn(C)c4)cc3c1)CCN(C(C)C)C2 [Compound 5]
> 3.02e-06	> 3.02e-06	> 3.02e-06			COc1cc(OC)c2c(c1)N(c1ccc3ncc(-c4cnn(C)c4)cc3c1)CCN(C)C2 [Compound 2]
8.91e-07	1.38e-06	> 3.02e-06			COc1cc(OC)c2c(c1)N(c1ccc3ncc(-c4cn[nH]c4)cc3c1)CCN(C(C)C)C2 [Compound 3]
9.33e-07	1.91e-07	1.05e-06			COc1cc(OC)c2c(c1)N(c1ccc3ncc(-c4cnn(C)c4)cc3n1)CCN(C(C)C)C2 [Compound 9]
> 1e-06	> 3.02e-06	2.69e-07	> 3.02e-06	> 3.02e-06	COc1cc(OC)c2c(c1)N(c1ccc3ncc(-c4cnn(C)c4)nc3n1)CCN(C(C)C)C2 [Compound 7]
> 3.02e-06	> 3.02e-06	> 3.02e-06	> 3.02e-06	> 3.02e-06	CC(C)N1CCN(c2ccc3ncc(-c4cnn(C)c4)cc3c2)c2cc(O)cc(O)c2C1 [Compound 6]
> 3.02e-06	> 3.02e-06	> 3.02e-06	> 3.02e-06	> 3.02e-06	COc1cc(O)cc2c1CN(C(C)C)CCN2c1ccc2ncc(-c3cnn(C)c3)cc2c1 [Compound 4]
1.86e-06	> 3.02e-06	> 3.02e-06			COc1cc(OC)c2c(c1F)N(c1ccc3ncn(-c4cnn(C)c4)c(=O)c3c1)CCN(C(C)C)C2 [Compound 12]

Source: US11542247B2, “Bi-heteroaryl substitute 1,4-benzodiazepines and uses thereof for the treatment of cancer” (Janssen Pharmaceutica NV, priority 2015, dated 2023)
